Laboratory results from patent publication US20260216239A1 (Arizona Board of Regents on Behalf of the University of …, priority 2020, published 2026).
Entries after “also recorded” stand apart in the source; their conditions may differ.

Tests used:
[1] = tested on: Calloselasma rhodostoma venom; experiment: Thrombelastography in human plasma of venom procoagulant activity after isolated exposure of venom to compounds; type: biochemical; conditions: venom 5 μg/ml in plasma
Procedure: Thrombelastographic analyses. The volumes of subsequently described plasmatic and other additives summed to a final volume of 360 μl. Samples were composed of 320 μl of plasma; 16.4 μl of PBS, 20 μl of 200 mM CaCl2), and 3.6 μl of PBS or venom mixture, which were pipetted into a disposable cup in a Thrombelastograph® hemostasis system (Model 5000, Haemonetics Inc., Braintree, MA, USA) at 37° C., and then rapidly mixed by moving the cup up against and then away from the plastic pin five times. The following viscoelastic parameters described previously (see, Nielsen V G (2019) J Thromb Thrombolysis 47, 73-79; Gessner G, et al., (2017) Eur J Pharmacol 815, 33-41; Nielsen V G, Wagner M T, Frank N (2020) Int J Mol Sci 21, 2082; Lazić D, Arsenijević A, Puchta R, Bugarčić ŽD, Rilak A (2016) Dalton Trans 45, 4633; Hanif M, et al., (2017) ChemPlusChem 82, 841-847) were measured: time to maximum rate of thrombus generation (TMRTG): this is the time interval (minutes) observed prior to maximum speed of clot growth; maximum rate of thrombus generation (MRTG): this is the maximum velocity of clot growth observed (dynes/cm^2/second); and total thrombus generation (TTG, dynes/cm^2), the final viscoelastic resistance observed after clot formation.
C. rhodostoma. […] The final concentration of this venom in plasma was 5 μg/ml.
(§1) Given the aforementioned, the experimental conditions utilized were: 1) V condition—venom in PBS; 2) Ru(II) condition—venom exposed to CORM-2; 3) Ru(III) condition—venom exposed to RuCl3; 4) Ru(II+III) condition—venom exposed to CORM-2 and RuCl3 simultaneously. After the 5 minute period at room temperature, 3.6 μl of one of these solutions was added to the plasma sample in the plastic thrombelastograph cup.
(§2) The volumes of subsequently described plasmatic and other additives summed to a final volume of 360 μl. Samples were composed of 320 μl of plasma; 16.4 μl of PBS, 20 μl of 200 mM CaCl2), and 3.6 μl of PBS or venom mixture, which were pipetted into a disposable cup in a Thrombelastograph® hemostasis system (Model 5000, Haemonetics Inc., Braintree, MA, USA) at 37° C., and then rapidly mixed by moving the cup up against and then away from the plastic pin five times. The following viscoelastic parameters described previously (see, Nielsen, V. G. J Thromb Thrombolysis 2019, 47, 73-79; Gessner, G.; et al., Eur J Pharmacol 2017, 815, 33-41; Nielsen, V. G.; Wagner, M. T.; Frank, N. Int J Mol Sci 2020, 21, 2082; Lazid, D.; et al., Dalton Trans 2016, 45, 4633; Hanif, M.; et al., ChemPlusChem 2017, 82, 841-847) were measured: time to maximum rate of thrombus generation (TMRTG): this is the time interval (minutes) observed prior to maximum speed of clot growth; maximum rate of thrombus generation (MRTG): this is the maximum velocity of clot growth observed (dynes/cm2/second); and total thrombus generation (TTG, dynes/cm2), the final viscoelastic resistance observed after clot formation.
C. rhodostoma. […] This venom was also exposed to 0 or 100 μM CORM-2 in the presence of 0 or 100 μM carboplatin in another series of experiments. The final concentration of this venom in plasma was 5 μg/ml.

[2] = tested on: Heloderma suspectum venom; experiment: as above; type: biochemical; conditions: venom 10 μg/ml in plasma
Procedure: as §2
H. suspectum. This venom was exposed to 0 or 1 mM CORM-3 in the presence of 0 or 100 μM RuCl3 in PBS for at least 5 minutes at room temperature prior to placement into plasma followed immediately with commencement of thrombelastographic analysis. The final concentration of this venom in plasma was 10 μg/ml.
as §1, with “CORM-2 or CORM-3;” for “CORM-2;”, “CORM-2 or CORM-3” for “CORM-2”, “simultaneously; 5) Pt(II) condition—venom exposed to carboplatin; and 6) Pt+Ru condition—venom exposed to carboplatin and CORM-2.” for “simultaneously.”

[3] = 50 μM CORM-2, 50 μM RuCl3 or both
[4] = 100 μM carboplatin, 100 μM CORM-2 or both
[5] = venom exposed ≥5 min in PBS to 50 μM CORM-2, 50 μM RuCl3 or both
[6] = 100 μM CORM-3, 100 μM RuCl3 or both
[7] = 1 mM CORM-3, 100 μM RuCl3 or both

Molecule	maximum rate of thrombus generation (MRTG) [1, 3]	time to maximum rate of thrombus generation (TMRTG) [1, 3]	maximum rate of thrombus generation (MRTG) [1, 4]	time to maximum rate of thrombus generation (TMRTG) [1, 4]	total thrombus generation (TTG) [1, 4]	procoagulant activity of venom [1, 5]	maximum rate of thrombus generation (MRTG) [1, 6]	time to maximum rate of thrombus generation (TMRTG) [1, 6]	procoagulant activity of venom / coagulation kinetic parameters ([2]; venom exposed ≥5 min in PBS to 1 mM CORM-3, 100 μM RuCl3 or both)	procoagulant activity of venom [1, 6]	maximum rate of thrombus generation (MRTG) [2, 7]	time to maximum rate of thrombus generation (TMRTG) [2, 7]	total thrombus generation (TTG) [2, 7]
[C-]#[O+].[C-]#[O+].[C-]#[O+].[C-]#[O+].[C-]#[O+].[C-]#[O+].[Cl][Ru][Cl].[Cl][Ru][Cl] [CORM-2, tricarbonyldichlororuthenium(II) dimer]	decrease	increased; also recorded: significant increase	decrease	significant increase	decrease	significantly decreased; also recorded: procoagulant activity inhibition	–	–	–	–	–	–	–
[Cl][Ru]([Cl])[Cl] [RuCl3, ruthenium(III) chloride]	decrease	increase	–	–	–	significantly diminished	decrease	significant increase	no significant changes in any of the coagulation kinetic parameters	–	–	–	–
Tricarbonylchloro(glycinato)ruthenium [CORM-3]	–	–	–	–	–	–	–	–	–	no significant effect	no change	significant increase	no change
